# Results from ChEMBL document CHEMBL2434896, “Carbonic anhydrase inhibitors. Synthesis of heterocyclic 4-substituted pyridine-3-sulfonamide derivatives and their inhibition of the human cytosolic isozymes I and II and transmembrane tumor-associated isozymes IX and XII” (Eur J Med Chem, 2013).
# Active and inactive are the calls of the source. No cut-off for these calls is given here.
# Columns and labels:
# Format in all cases: functional
# OVCAR-4 = experiment: Growth inhibition of human OVCAR4 cells at 10 uM after 48 hrs by sulforhodamine B assay; details: for inhibition of growth at 10 µM: OVCAR-4, 48 h, read-out: GI
# ACHN = experiment: Growth inhibition of human ACHN cells at 10 uM after 48 hrs by sulforhodamine B assay; details: for inhibition of growth at 10 µM: read-out: GI
# SF-295 = experiment: Growth inhibition of human SF295 cells at 10 uM after 48 hrs by sulforhodamine B assay; details: for inhibition of growth at 10 µM: SF-295, 48 h, read-out: GI
# PC-3 = experiment: Growth inhibition of human PC3 cells at 10 uM after 48 hrs by sulforhodamine B assay; details: for inhibition of growth at 10 µM: PC-3, 48 h, read-out: GI
# MDA-MB-435 = experiment: Growth inhibition of human MDA-MB-435 cells at 10 uM after 48 hrs by sulforhodamine B assay; details: for inhibition of growth at 10 µM: MDA-MB-435, 48 h, read-out: GI
# NCI-H460 = experiment: Growth inhibition of human NCI-H460 cells at 10 uM after 48 hrs by sulforhodamine B assay
# [1] = Growth inhibition of human HCC2998 cells at 10 uM after 48 hrs by sulforhodamine B assay; details: HCC 2998, 48 h, read-out: GI
# SNB-75 = experiment: Growth inhibition of human SNB75 cells at 10 uM after 48 hrs by sulforhodamine B assay; details: for inhibition of growth at 10 µM: SNB-75, 48 h, read-out: GI
# RPMI-8226 = experiment: Growth inhibition of human RPMI8226 cells at 10 uM after 48 hrs by sulforhodamine B assay; details: for inhibition of growth at 10 µM: RPMI-8226, 48 h, read-out: GI
# NCI-H23 = experiment: Growth inhibition of human NCI-H23 cells at 10 uM after 48 hrs by sulforhodamine B assay; details: for inhibition of growth at 10 µM: NCI-H23, 48 h, read-out: GI
# SW-620 = experiment: Growth inhibition of human SW620 cells at 10 uM after 48 hrs by sulforhodamine B assay; details: for inhibition of growth at 10 µM: SW-620, 48 h, read-out: GI
# EKVX = experiment: (§1) Growth inhibition of human EKVX cells at 10 uM after 48 hrs by sulforhodamine B assay
# NCI-H522 = experiment: Growth inhibition of human NCI-H522 cells at 10 uM after 48 hrs by sulforhodamine B assay; details: for inhibition of growth at 10 µM: NCI-H522, 48 h, read-out: GI
# SK-OV-3 = experiment: Growth inhibition of human SKOV3 cells at 10 uM after 48 hrs by sulforhodamine B assay; details: for inhibition of growth at 10 µM: SK-OV-3, 48 h, read-out: GI
# SK-MEL-5 = experiment: Growth inhibition of human SK-MEL-5 cells at 10 uM after 48 hrs by sulforhodamine B assay; details: for inhibition of growth at 10 µM: SK-MEL-5, 48 h, read-out: GI
# U-251 = experiment: Growth inhibition of human U251 cells at 10 uM after 48 hrs by sulforhodamine B assay; details: for inhibition of growth at 10 µM: U-251, 48 h, read-out: GI
# [2] = as §1; details: read-out: GI
# [3] = Growth inhibition of human NCI-ADR-RES cells at 10 uM after 48 hrs by sulforhodamine B assay; details: read-out: GI
# [4] = Growth inhibition of human Hs 578T cells at 10 uM after 48 hrs by sulforhodamine B assay; details: read-out: GI
SMILES,inhibition of growth at 10 µM (OVCAR-4),growth inhibition (GI) (ACHN),growth inhibition (GI) (SF-295),inhibition of growth at 10 µM (PC-3),growth inhibition (GI) (MDA-MB-435),growth inhibition (GI) (NCI-H460),inhibition of growth at 10 µM (SNB-75),inhibition of growth at 10 µM (RPMI-8226),growth inhibition (GI) (NCI-H23),growth inhibition (GI) (SW-620),growth inhibition (GI) (EKVX),inhibition of growth at 10 µM (NCI-H522),growth inhibition (GI) (SK-MEL-5),inhibition of growth at 10 µM (U-251),inhibition of growth at 10 µM (SF-295),inhibition of growth at 10 µM (MDA-MB-435),inhibition of growth at 10 µM [2],inhibition of growth at 10 µM (SK-MEL-5),growth inhibition (GI) (OVCAR-4),growth inhibition (GI) (SK-OV-3),further results
CCc1cc(CC)n(-c2ccncc2S(N)(=O)=O)n1,4%,inactive,inactive,1%,inactive,inactive,3%,9%,inactive,inactive,inactive,7%,inactive,1%,,,,,,,inhibition of growth at 10 µM [1]: 6%; inhibition of growth at 10 µM (SK-OV-3): 6%
NS(=O)(=O)c1cnccc1N1CCN(c2ccc(Cl)c(Cl)c2)CC1,65%,,,35%,,,3%,47%,,,,43%,,,41%,32%,30%,89%,,,"inhibition of growth at 10 µM (ACHN): 24%; inhibition of growth at 10 µM (NCI-H460; NCI-H460, 48 h, read-out: GI): 16%; inhibition of growth at 10 µM [1]: 17%; inhibition of growth at 10 µM (NCI-H23): 33%; inhibition of growth at 10 µM (SW-620): 3%; inhibition of growth at 10 µM (SK-OV-3): 8%; inhibition of growth at 10 µM [3]: 25%"
NS(=O)(=O)c1cnccc1N1CCN(Cc2ccc3c(c2)OCO3)CC1,,inactive,inactive,1%,inactive,inactive,9%,,inactive,inactive,inactive,2%,inactive,,,,,,inactive,inactive,growth inhibition (GI) (RPMI-8226): inactive; inhibition of growth at 10 µM [3]: 3%; growth inhibition (GI) (U-251): inactive
Cc1ccc(C)c(N2CCN(c3ccncc3S(N)(=O)=O)CC2)c1,,,,4%,inactive,inactive,9%,8%,inactive,,inactive,15%,,20%,1%,,,3%,inactive,inactive,inhibition of growth at 10 µM (ACHN): 6%; inhibition of growth at 10 µM (SW-620): 3%
NS(=O)(=O)c1cnccc1N1CCN(c2ccccn2)CC1,,inactive,inactive,1%,,inactive,12%,5%,,,,,inactive,6%,,2%,1%,,inactive,inactive,inhibition of growth at 10 µM [4]: 20%; inhibition of growth at 10 µM (NCI-H23): 4%; inhibition of growth at 10 µM (SW-620): 1%; growth inhibition (GI) (NCI-H522): inactive; inhibition of growth at 10 µM [3]: 6%
NS(=O)(=O)c1cnccc1N1CCC(Cc2ccccc2)CC1,2%,inactive,inactive,2%,inactive,inactive,,11%,inactive,inactive,inactive,12%,,,,,,4%,,,growth inhibition (GI) (SNB-75): inactive; inhibition of growth at 10 µM (SK-OV-3): 2%; growth inhibition (GI) (U-251): inactive
NS(=O)(=O)c1cnccc1N1CCN(c2ncccn2)CC1,,inactive,inactive,,inactive,inactive,11%,,inactive,inactive,inactive,2%,inactive,,,,,,inactive,inactive,growth inhibition (GI) (PC-3): inactive; growth inhibition (GI) (RPMI-8226): inactive; growth inhibition (GI) (U-251): inactive
NS(=O)(=O)c1cnccc1N1CCN(c2ccc(Cl)cc2)CC1,28%,,,8%,,inactive,,25%,,inactive,,8%,,,14%,1%,11%,28%,,inactive,inhibition of growth at 10 µM (ACHN): 6%; growth inhibition (GI) (SNB-75): inactive; inhibition of growth at 10 µM (NCI-H23): 7%
COc1ccccc1N1CCN(c2ccncc2S(N)(=O)=O)CC1,2%,inactive,,10%,,inactive,10%,3%,inactive,inactive,,,inactive,1%,3%,2%,3%,,,inactive,growth inhibition (GI) (NCI-H522): inactive
